According to patent US20040151698A1, “Microbial pesticide active against plant fungal pathogens and process for preparation thereof” (priority 2000, published 2004):
Where “and” joins values, the source holds several entries; their conditions need not be identical. Equal values may be shown once.

Assays:
C. fulvum = assay: Greenhouse test against leaf mold in tomato; format: in vivo, Cladosporium fulvum; conditions: sprayed at a usual concentration; for Morbidity (%) Avg.: average of 3 repeats
Experimental: (§1) Greenhouse and field tests of the fungicidal activity of the antagonistic microbe against various pathogenic fungi are conduced. For this, tomatoes are cultivated both in a greenhouse and a field. The tomatoes cultivated in a greenhouse and a field are treated with the spore suspension of the novel antagonistic microbe of the present invention and then exposed to pathogenic fungi, B. cinerea causing gray mold rot, C. fulvum causing leaf mold, and A. solani causing early blight, separately. The experiment is performed according to a randomized block design with three repeat measures. For comparison, procymidone for use in the control of gray mold rot, propineb for use in the control of leaf mold, and azoxystrobin for use in the control of early blight are employed. Morbidity is determined by examining the infection of all tomatoes one by one or by a sampling method. A significance test is carried out according to Duncan's multiple range test (DMRT).
To determine the fungicidal activity of the antagonistic microbe of the present invention against C. fulvum causing leaf mold, tomato plants were cultivated in the same manner as in Experimental Example 4-1 in a greenhouse with a dimension of 23.7 m in length, 7.0 m in width and 2.3 m in height. The experiment was performed in triplicate in a randomized block design. For comparison, propineb was sprayed as a control at a usual concentration. Morbidity was determined by examining the infection of 20 stalks of tomatoes per repeat measure and attack frequency was calculated according to the following equation: [formula]
wherein the factor is set to be: 0 when no leaves are infected; 1 when one forth of the total leaves are infected; 2 when half of the total leaves are infected and some of them are withered; 3 when three fourths of the total leaves are infected and half of them are withered; and 4 when two thirds are withered to death.

A. solani = assay: Field test against early blight in potato; format: in vivo, Alternaria solani; conditions: sprayed at a usual concentration; for Morbidity (%) Avg.: average of 3 repeats
Experimental: as §1
To determine the fungicidal activity of the antagonistic microbe of the present invention against A. solani causing early blight, tomato was cultivated in a field. The cultivation was performed in the following schedule;
June 10 1st Treatment with the antagonistic microbe (spray amount 300 L/10 a)
July 5 2nd Treatment with the antagonistic microbe (spray amount 300 L/10 a)
July 13 Measuring mobidity
The experiment was performed in a randomized block design with three repeat measures. For comparison, azoxystrobin was sprayed as a control at a usual concentration. Morbidity was determined by examining the infection of 20 stocks of potatoes per repeat measure and attack frequency was calculated as in Experimental Example 4-2.

B. cinerea = assay: Greenhouse test against tomato gray mold rot; format: in vivo, Botrytis cinerea; conditions: sprayed at a usual concentration
Experimental: as §1
To determine the fungicidal activity of the antagonistic microbe of the present invention against B. cinerea causing gray mold rot, tomato plants were cultivated in a greenhouse with a dimension of 23.7 m in length, 7.0 m in width and 2.3 m in height. The cultivation was performed according to the following schedule;
February 11 1st Treatment with the antagonistic microbe (spray amount 300 L/10 a)
February 20 2nd Treatment with the antagonistic microbe (spray amount 300 L/10 a)
March 2 3rd Treatment with the antagonistic microbe (spray amount 330 L/10 a)
March 22 Measuring mobidity
The tomato plants treated with the antagonistic microbe occupied an area of 5.4 m2 and the experiment was performed in triplicate in a randomized block design. For comparison, Procymidone was sprayed as a control at a usual concentration. The spore suspension of the antagonistic microbe prepared in Example 2 was added directly to water to bring about 500- and 1,000-fold dilutions of the population. Morbidity was determined by examining the infection of all tomato plants one by one. A significance test was performed according to Duncan's multiple range test (DMRT).

propineb
Control value(%) (C. fulvum): 42.9% | Morbidity (%) Avg. (C. fulvum): 12.0 B % | Morbidity (%) Avg. (C. fulvum; listed as propineb): 21.9% | Morbidity (%) 1 (C. fulvum; repeat 1): 10.3% | Morbidity (%) 2 (C. fulvum; repeat 2): 11.2% | Morbidity (%) 3 (C. fulvum; repeat 3): 14.5%

CO/C=C(/C(=O)OC)c1ccccc1Oc1cc(Oc2ccccc2C#N)ncn1 [Azoxytrobin, azoxystrobin]
Control value(%) (A. solani): 57.6% | Morbidity (%) Avg. (A. solani): 9.2 A % | Morbidity (%) Avg. (A. solani; listed as azoxystrobin): 9.2% | Morbidity (%) 1 (A. solani; repeat 1): 9.3% | Morbidity (%) 2 (A. solani; repeat 2): 10.2% | Morbidity (%) 3 (A. solani; repeat 3): 8.2%

CC12CC1(C)C(=O)N(c1cc(Cl)cc(Cl)c1)C2=O (centres unmarked) [Procymidone]
Control value(%) (B. cinerea): 40.2% | Morbidity (%) Avg. (B. cinerea; average of 3 repeats): 10.4% and 10.4 B % | Morbidity (%) 1 (B. cinerea; repeat 1): 12.3% | Morbidity (%) 2 (B. cinerea; repeat 2): 10.6% | Morbidity (%) 3 (B. cinerea; repeat 3): 8.2%
